US8962662B2, “Antimicrobial compositions and methods of use thereof” (Byocoat Enterprises, Inc., priority 2011, dated 2015)
“Also recorded” adds a separate entry of the source.

How the values were obtained:
yeast and mold = assay: Yeast and mold growth (CFU) on whole poultry carcasses after spray treatment, day 1 versus day 7; assay type: cell-based; conditions: for log growth in yeast and mold over 7 days: day 7 minus day 1 log average
Procedure: (§1) The following solutions were prepared. A cetylpyridinium chloride (CPC) solution was prepared by combining 1.0 g of cetylpyridinium chloride (CAS No. 123-03-05) in 100 mL of water to form a nominal 1.0 wt % CPC test solution. An epsilon-polylysine (EPL) solution was prepared by combining 4.3 g epsilon-polylysine (CAS No. 25104-18-1) in water to form 100 mL of aqueous solution to form a nominal 4.3 wt % EPL test solution. The combination test solution was prepared by combining 1.0 g of cetylpyridinium chloride and 4.3 g epsilon-polylysine in water to form 100 mL of aqueous solution to form a standard concentration combination solution, and 3.7 g of this standard concentration solution was diluted up to 100 mL to form a combination test solution, which is diluted roughly 27-fold from the from the standard concentration solution.
(§2) The following test method was used. Whole poultry carcasses were collected from the processing line following evisceration and rinse. The carcasses were then treated with the CPC, EPL, or combined CPC+EPL products and dilution rates as listed above, using a Lillard spray application for 5 seconds. Following 10 seconds of dwell time, a 25 gram sample of the product was collected and immediately tested to establish a control sample set-point, and 325 grams of the same carcass were incubated at 37° C. for 168 hours (7 days). Following the incubation cycle, a second 25 gram sample was collected from the 325 gram control for testing evaluation of yeast and mold growth. A second 25 gram composite sample was collected from the same 325 gram control for pathogenic testing for salmonella presence. All samples were tested using AOAC accredited methods in an AOAC accredited API examined laboratory. Confirmation (split) samples were processed at ABC Research Laboratory.

Salmonella = assay: Pathogenic testing for salmonella presence on treated poultry carcass samples after 7 day incubation; assay type: cell-based; conditions: for salmonella prevalence rate (samples tested positive): after 7 day incubation
Procedure: as §1, §2

Row | Molecule | log growth in yeast and mold over 7 days (yeast and mold; CPC (1.0%) only) | Log Avg, CPC Day 7 (yeast and mold; average of 10 samples, cetylpyridinium chloride (1.0%), after 7 days at 37° C.) | Log Avg, CPC Day 1 (yeast and mold; average of 10 samples, cetylpyridinium chloride (1.0%), day 1 set-point) | salmonella prevalence rate (samples tested positive) (Salmonella; CPC (1.0%) only) | log growth in yeast and mold over 7 days (yeast and mold; EPL (4.3%) only) | Log Avg, EPL Day 7 (yeast and mold; average of 10 samples, ε-poly-L-lysine (4.3%), after 7 days at 37° C.) | Log Avg, EPL Day 1 (yeast and mold; average of 10 samples, ε-poly-L-lysine (4.3%), day 1 set-point) | seven-day samples tested positive for Salmonella (Salmonella; EPL (4.3%) only, 10 samples) | salmonella prevalence rate (samples tested positive) (Salmonella; EPL (4.3%) only) | Salmonella, EPL Day 7 (Salmonella; ε-poly-L-lysine (4.3%), after 7 days at 37° C.)
1 | CCCCCCCCCCCCCCCC[n+]1ccccc1 [CPC, cetylpyridinium chloride] | 4.995 log | 7.264 | 2.269 | 20% |  |  |  |  |  | 
2 | ε-poly-L-lysine [EPL] |  |  |  |  | 3.677 log | 6.97 | 3.293 | 4 of 10 | 40% | NEGATIVE; also recorded: POSITIVE
